Experimental data taken from patent US12653822B2, “Aripiprazole formulations having increased injection speeds” (ALKERMES PHARMA IRELAND LIMITED, priority 2014, dated 2026).

Columns and labels:
[1] = cited from earlier work
[2] = Phase 3 extension study: rapid IM injection of Compound 1, pain and injection site reactions; type: in vivo, human; details: fast injection
Procedure: Injection site reactions and pain upon IM injection of Compound 1 are a potential safety concern. A Phase 3, multicenter, extension study was conducted in 81 sites to assess the effect of rapid IM injections of Compound 1 on human patients diagnosed with stable schizophrenia. Briefly, 332 subjects enrolled in the study were assigned PFS. Compound 1 is formulated as a pre-filled syringe (PFS) of an extended release aqueous suspension of a therapeutically effective amount of Compound 1. An injection volume of 3.4 mL or 1.6 mL of the aqueous suspension was administered according to protocol I at a rate of less than 10 seconds by inserting the 20 gauge needle in the gluteal muscle. ISRs upon IM injection of Compound 1 were assessed at each visit. Over 5000 injections of Compound 1 have been administered intramuscularly with an ISR rate of less than 1%.
• 1. TAP the pre-filled syringe at least 10 times to dislodge any material that may have settled. • 2. […] Replace with new needle (Steps 3 & 4) and administer into an adjacent site in the same gluteal muscle (Steps 5 & 6).] • If you are unable to complete the injection, replace with new needle (Steps 3 & 4) and readminister into an adjacent site in the same gluteal muscle (Steps 5 & 6). • 7. […]

Row | Structure (SMILES) | Tissue irritation ([1]; following intramuscular (IM) injection and subcutaneous (SC) injection) | Pharmacokinetic profile ([1]; injections) | injection site reactions and/or elevated pain levels reported, % of patients [2] [%]
1 | O=C1CCc2ccc(OCCCCN3CCN(c4cccc(Cl)c4Cl)CC3)cc2N1 [aripiprazole free base, 7-{4-[4-(2,3-dichlorophenyl)-1-piperazinyl]butoxy}-3,4-dihydro-2(1H)-quinolinone] | moderate to severe | prolonged | –
2 | CCCCCCCCCCCC(=O)OCN1C(=O)CCc2ccc(OCCCCN3CCN(c4cccc(Cl)c4Cl)CC3)cc21 [Compound 1, (7-(4-(4-(2,3-dichlorophenyl)piperazin-1-yl)butoxy)-2-oxo-3,4-dihydroquinolin-1(2H)-yl)methyl dodecanoate] | – | – | < 1
